{"source": "patent US20240118281A1", "about": "“ANTICANCER COMPOUNDS AND USES THEREOF” (University of Florida Research Foundation, Incorporated, priority 2021, published 2024)", "key": {"[1]": {"tested_on": "HER2+ BT474 xenograft tumors", "assay": "BT474 xenograft tumor study, H&E staining of mammary fat pads/tumors", "format": "in vivo, mice", "details": "20 mg/kg intraperitoneal, four consecutive days; vehicle tumors showed no necrosis", "experimental": "Breast cancer liver metastasis was initiated in NOD-SCID-gamma (NSG) mice obtained from Jackson Laboratories (Bar Harbor, ME) by injecting 1×10^6 cancer cells into the #4 mammary fat pads as described previously (Wang M, et al. Cell Death Discovery 2019; 5: 153). Mice bearing HCI-001/LVM2 breast tumors were treated once daily for four consecutive days with 20 mg/kg tcyDTDO by oral gavage and livers were collected. Animals bearing HER2+ BT474 tumors were treated with the vehicle or 20 mg/kg dMtcyDTDO or dFtcyDTDO by intraperitoneal injection for four consecutive days. Tissue samples fixed in 4% paraformaldehyde/PBS and paraffin-embedded were sectioned and stained with hematoxylin and eosin (H&E) by the University of Florida Molecular Pathology Core (https://molecular.pathology.ufl.edu/)."}, "MDA-MB-468 cells": {"tested_on": "MDA-MB-468 cells", "assay": "Thymidine incorporation (DNA synthesis) assay", "format": "cell-based", "details": "24 h, FIG. 9A", "experimental": "Thymidine incorporation assays were performed as described previously (Corsino P, et al. J Biol Chem 2009; 284: 29945-29955)."}, "GRP78": {"tested_on": "GRP78", "assay": "Endoplasmic reticulum stress (ERS) induction, immunoblot", "format": "cell-based", "details": "MDA-MB-468 cells, 24 h", "text": "The BT20, BT474, BT549, MCF7, MDA-MB-231, MDA-MB-436, MDA-MB-468, HCC1143, HCC1500, HCC1569, HCC1937, HCC1954, Hs578t, and T47D cells lines were purchased from American Type Culture Collection (ATCC) (Manassas, VA). The HCI-001 cell line was derived from an ER-/PR-/HER2- patient-derived xenograft originally isolated from a patient as described previously (DeRose Y S, et al. Nat Med 2011; 17: 1514-1520). The HCI-001/LVM2 model was derived from the HCI-001 cell line by performing two rounds of selection for liver metastasis, as described previously (Wang M, et al. Cell Death Discovery 2019; 5: 153). Cell lines were grown in Dulbecco's Modified Eagle's Medium (GE Healthcare Life Sciences, Logan, UT) containing 10% fetal bovine serum (10% FBS—DMEM) in a humidified incubator with 5% CO2 at 37° C. Cell lysates were prepared as described previously (Law B K, et al. Mol Cell Biol. 2002; 22: 8184-8198). Immunoblot analysis was performed utilizing the following antibodies purchased from Cell Signaling Technology (Beverly, MA) [Akt, #4691; P-Akt[T308], #13038; ATF4, #11815; CHOP, #2895; Cleaved Caspase 8, #9496; DR4, #42533; DR5, #8074; EGFR, #4267; GRP78, #3177; HER3, #4754; PARP, #9532; PDIA1, #3501; XBP1s, #12782], from Santa Cruz Biotechnology (Santa Cruz, CA) [Actin, sc-47778; AGR2/3, sc-376653; AGR3, sc-390940; ERO1-a, sc-100805; and ERp44, sc-393687], or from Rockland Immunochemicals, Inc. (Limerick, PA), Streptavidin-Alkaline Phosphatase conjugated (SA-AP), S000-05.\n(§1) To assess protein disulfide bond-mediated oligomerization, cells were treated with DDAs for 24 h in 10% FBS-DMEM. Cells were subsequently scraped directly into the media and pelleted by centrifugation. Cells were extracted directly into boiling 2×-SDS-Sample Buffer containing 100 mM NEM and boiled for 10 min. Samples were sonicated, followed by centrifugation for 20 min at room temperature. Samples were subsequently analyzed by SDS-PAGE and immunoblot."}, "[2]": {"tested_on": "HER3, DR5, CHOP and XBP1s", "assay": "Reducing immunoblot of DDA responses", "format": "cell-based", "details": "MDA-MB-468 cells", "text": "The BT20, BT474, BT549, MCF7, MDA-MB-231, MDA-MB-436, MDA-MB-468, HCC1143, HCC1500, HCC1569, HCC1937, HCC1954, Hs578t, and T47D cells lines were purchased from American Type Culture Collection (ATCC) (Manassas, VA). The HCI-001 cell line was derived from an ER-/PR-/HER2- patient-derived xenograft originally isolated from a patient as described previously (DeRose Y S, et al. Nat Med 2011; 17: 1514-1520). The HCI-001/LVM2 model was derived from the HCI-001 cell line by performing two rounds of selection for liver metastasis, as described previously (Wang M, et al. Cell Death Discovery 2019; 5: 153). Cell lines were grown in Dulbecco's Modified Eagle's Medium (GE Healthcare Life Sciences, Logan, UT) containing 10% fetal bovine serum (10% FBS—DMEM) in a humidified incubator with 5% CO2 at 37° C. Cell lysates were prepared as described previously (Law B K, et al. Mol Cell Biol. 2002; 22: 8184-8198). […]"}, "AGR3": {"target": "T1, AGR3 (Homo sapiens, UniProt Q8TD06)", "T1 construct": "His6 (N); purchased ProSpec PRO-242", "T1 sequence (Q8TD06 22-166)": "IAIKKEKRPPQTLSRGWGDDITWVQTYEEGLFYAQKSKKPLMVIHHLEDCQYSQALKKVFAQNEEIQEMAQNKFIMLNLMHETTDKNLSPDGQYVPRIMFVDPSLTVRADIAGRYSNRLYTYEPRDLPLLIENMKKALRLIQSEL", "assay": "DDA binding assay with AGR3", "details": "molar excess, pre-incubation with 600 μM, FIG. 2D", "experimental": "(§2) Purified His6-AGR2 or His6-AGR2 C81S, as prepared above, or His6-AGR2 (PRO-580) or His6-AGR3 (PRO-242) obtained from ProSpec (New Brunswick NJ) were incubated with or without varying concentrations of the unlabeled DDA competitors, tcyDTDO or dMtcyDTDO, and 30 μM Biotin-GlyPyrDTDO or Biotin-PyrDTDO in buffer (20 mM HEPES (pH 7.4), 1 mM EDTA, 1 mM EGTA, 5% Glycerol, 1 nM Microcystin, 1 mM Na3VO4, and 40 mM Na2H2P2O7) containing 1% Triton-X 100 for 30 min at 37° C. […] Therefore, the two probes were used interchangeably. Reactions were stopped by boiling the samples in 2×-SDS-Sample Buffer containing 100 mM NEM for 10 min. Biotin-DDA labeling of protein was verified by blotting with Streptavidin-Alkaline Phosphatase (Rockland Immunochemicals, Inc., Limerick, PA). ERp44 (PRO-547) and PDIA1 (ENZ-262) were obtained from ProSpec and used in experiments examining the binding of these proteins to Biotin-PyrDTDO."}, "PDIA1 [3]": {"target": "T2, PDIA1 (Homo sapiens, UniProt P07237)", "T2 sequence (P07237 18-508)": "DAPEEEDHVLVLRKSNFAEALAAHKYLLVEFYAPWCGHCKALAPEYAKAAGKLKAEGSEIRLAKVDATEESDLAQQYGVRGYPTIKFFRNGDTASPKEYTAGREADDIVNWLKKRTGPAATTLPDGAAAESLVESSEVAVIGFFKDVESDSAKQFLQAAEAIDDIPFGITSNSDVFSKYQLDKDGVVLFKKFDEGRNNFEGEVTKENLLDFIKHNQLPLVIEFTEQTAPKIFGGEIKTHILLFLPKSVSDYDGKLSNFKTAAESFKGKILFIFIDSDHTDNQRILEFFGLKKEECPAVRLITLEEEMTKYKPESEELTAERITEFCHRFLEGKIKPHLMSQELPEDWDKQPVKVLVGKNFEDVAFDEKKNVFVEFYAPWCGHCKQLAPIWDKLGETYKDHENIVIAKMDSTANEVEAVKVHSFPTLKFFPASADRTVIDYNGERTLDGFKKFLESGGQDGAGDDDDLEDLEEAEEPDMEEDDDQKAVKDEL", "assay": "In vitro binding assay with recombinant purified PDIA1", "details": "pre-incubation with a molar excess, FIG. 3D", "experimental": "as §2"}, "DR5": {"tested_on": "DR5", "assay": "Doxycycline-inducible DR5 (wild type and Cys mutants) expression, non-reducing immunoblot", "format": "cell-based", "details": "MDA-MB-468 stable cell lines, 24 h, FIG. 7E", "experimental": "as §1"}, "AGR2": {"target": "T3, AGR2 (Homo sapiens, UniProt O95994)", "T3 sequence (O95994 21-175)": "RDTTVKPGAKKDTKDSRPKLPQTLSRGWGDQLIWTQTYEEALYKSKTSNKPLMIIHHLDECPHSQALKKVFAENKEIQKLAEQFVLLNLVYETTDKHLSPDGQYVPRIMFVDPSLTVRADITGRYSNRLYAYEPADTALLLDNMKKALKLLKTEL", "assay": "AGR2 dimer formation in stable cell lines, non-reducing immunoblot", "format": "cell-based", "design": "expressed in transfected cells", "details": "MDA-MB-468 stable cell lines, 5 μM, 24 h, FIG. 2F", "experimental": "as §1"}, "PDIA1 [4]": {"target": "T2, PDIA1", "assay": "PDIA1 disulfide bonding with client proteins, non-reducing immunoblot", "format": "cell-based", "design": "endogenous in cells; host or cells: MDA-MB-468", "details": "MDA-MB-468 cells, 5 μM, 24 h, FIG. 3E", "experimental": "as §1"}}}
{"smiles": "CO[C@H]1C[C@@H]2CS(=O)(=O)SC[C@H]2C[C@@H]1OC", "note": "[dMtcyDTDO, dimethoxy-tcyDTDO]", "values": [{"measurement": "Tumors in mammary fat pads, H&E histology", "setting": "[1]", "value": "tumors that had undergone coagulation necrosis"}, {"measurement": "Potency in DNA synthesis assay relative to tcyDTDO", "setting": "MDA-MB-468 cells", "value": "two-fold greater potency than tcyDTDO"}, {"measurement": "Concentration at which induction of ERS (GRP78 elevation) was detected", "setting": "GRP78; FIG. 1E right", "value": 625, "unit": "nM"}, {"measurement": "ERS at the same concentration", "setting": "GRP78; compared with tcyDTDO, FIG. 1E left", "value": "greater ERS"}, {"measurement": "Potency in induction of HER3 downregulation, DR5 upregulation and ERS (CHOP, XBP1s)", "setting": "[2]; 24 h, reducing conditions, FIG. 9B", "value": "more potent than tcyDTDO"}, {"measurement": "Onset of these responses (time-course)", "setting": "[2]; FIG. 9C", "value": "as early as four hours after treatment"}, {"measurement": "Competition with Biotin-GlyPyrDTDO binding to AGR3", "setting": "AGR3", "value": "partially prevented Biotin-GlyPyrDTDO binding"}, {"measurement": "Block of Biotin-PyrDTDO biotinylation of PDIA1", "setting": "PDIA1 [3]", "value": "biotinylation was blocked"}, {"measurement": "Expression of C119S or C160S DR5 mutants", "setting": "DR5", "value": "did not further increase expression of the C119S or C160S DR5 mutants"}, {"measurement": "Wild type DR5 expression on co-treatment with doxycycline", "setting": "DR5", "value": "further increased DR5 expression"}, {"measurement": "AGR2 dimer formation in cells with enforced AGR2 expression", "setting": "AGR2", "value": "blocked dimer formation by wild type AGR2"}, {"measurement": "Disulfide bonding of PDIA1 with client proteins", "setting": "PDIA1 [4]", "value": "reduces disulfide bonding of ERp44 and PDIA1 with multiple proteins"}, {"measurement": "Monomeric levels of PDIA1", "setting": "PDIA1 [4]", "value": "minimal effect on monomeric levels"}]}
